Structures can show the parent of a compound that is named as a salt.
Columns and labels:
Test in all cases: PI3K enzyme inhibitory activity in the cell free assay (ADP-Glo Kinase Assay)
Type in all cases: biochemical
PI3Kα = molecular target: T1, PI3Kα (Homo sapiens, UniProt P42336); conditions: human recombinant PI3Kα, ATP 50 μM; read-out: PI3K alpha inhibition
T1 construct: purchased Millipore Ltd (Billerica, Mass.)

PI3Kβ = molecular target: T2, PI3Kβ (Homo sapiens, UniProt P42338); conditions: human recombinant PI3Kβ, ATP 100 μM; read-out: PI3K beta inhibition
T2 construct: purchased Millipore Ltd (Billerica, Mass.)
T2 sequence (P42338 whole entry): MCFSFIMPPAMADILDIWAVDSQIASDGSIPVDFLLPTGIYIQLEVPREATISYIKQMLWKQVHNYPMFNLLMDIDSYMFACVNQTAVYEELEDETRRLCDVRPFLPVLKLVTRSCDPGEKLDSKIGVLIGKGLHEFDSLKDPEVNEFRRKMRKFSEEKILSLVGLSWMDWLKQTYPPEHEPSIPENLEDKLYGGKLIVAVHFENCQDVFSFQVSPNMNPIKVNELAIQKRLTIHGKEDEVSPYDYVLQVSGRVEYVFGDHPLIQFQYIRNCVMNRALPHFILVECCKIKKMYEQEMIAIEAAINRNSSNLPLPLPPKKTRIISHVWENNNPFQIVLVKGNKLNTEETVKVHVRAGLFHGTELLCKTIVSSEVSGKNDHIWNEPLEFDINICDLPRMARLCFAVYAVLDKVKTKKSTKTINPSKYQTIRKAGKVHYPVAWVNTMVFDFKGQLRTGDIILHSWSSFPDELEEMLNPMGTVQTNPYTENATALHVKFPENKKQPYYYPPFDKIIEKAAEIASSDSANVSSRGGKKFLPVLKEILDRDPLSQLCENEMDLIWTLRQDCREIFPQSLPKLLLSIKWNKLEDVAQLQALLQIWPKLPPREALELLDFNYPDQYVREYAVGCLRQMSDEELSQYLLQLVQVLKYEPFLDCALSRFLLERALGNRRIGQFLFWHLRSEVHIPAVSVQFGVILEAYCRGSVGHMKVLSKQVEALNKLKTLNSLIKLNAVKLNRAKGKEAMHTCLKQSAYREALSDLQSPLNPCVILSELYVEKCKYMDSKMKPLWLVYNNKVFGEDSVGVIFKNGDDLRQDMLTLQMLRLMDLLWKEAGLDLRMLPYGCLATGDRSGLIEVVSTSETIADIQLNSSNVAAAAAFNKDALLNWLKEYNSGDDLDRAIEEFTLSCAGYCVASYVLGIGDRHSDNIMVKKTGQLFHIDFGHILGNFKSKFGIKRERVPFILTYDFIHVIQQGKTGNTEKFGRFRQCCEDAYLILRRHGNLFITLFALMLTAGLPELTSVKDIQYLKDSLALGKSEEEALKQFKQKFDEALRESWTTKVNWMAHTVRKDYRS

PI3Kδ = molecular target: T3, PI3Kδ (Homo sapiens, UniProt O00329); conditions: human recombinant PI3Kδ, ATP 80 μM; read-out: PI3K delta inhibition
T3 construct: purchased Millipore Ltd (Billerica, Mass.)
T3 sequence (O00329 1-1044): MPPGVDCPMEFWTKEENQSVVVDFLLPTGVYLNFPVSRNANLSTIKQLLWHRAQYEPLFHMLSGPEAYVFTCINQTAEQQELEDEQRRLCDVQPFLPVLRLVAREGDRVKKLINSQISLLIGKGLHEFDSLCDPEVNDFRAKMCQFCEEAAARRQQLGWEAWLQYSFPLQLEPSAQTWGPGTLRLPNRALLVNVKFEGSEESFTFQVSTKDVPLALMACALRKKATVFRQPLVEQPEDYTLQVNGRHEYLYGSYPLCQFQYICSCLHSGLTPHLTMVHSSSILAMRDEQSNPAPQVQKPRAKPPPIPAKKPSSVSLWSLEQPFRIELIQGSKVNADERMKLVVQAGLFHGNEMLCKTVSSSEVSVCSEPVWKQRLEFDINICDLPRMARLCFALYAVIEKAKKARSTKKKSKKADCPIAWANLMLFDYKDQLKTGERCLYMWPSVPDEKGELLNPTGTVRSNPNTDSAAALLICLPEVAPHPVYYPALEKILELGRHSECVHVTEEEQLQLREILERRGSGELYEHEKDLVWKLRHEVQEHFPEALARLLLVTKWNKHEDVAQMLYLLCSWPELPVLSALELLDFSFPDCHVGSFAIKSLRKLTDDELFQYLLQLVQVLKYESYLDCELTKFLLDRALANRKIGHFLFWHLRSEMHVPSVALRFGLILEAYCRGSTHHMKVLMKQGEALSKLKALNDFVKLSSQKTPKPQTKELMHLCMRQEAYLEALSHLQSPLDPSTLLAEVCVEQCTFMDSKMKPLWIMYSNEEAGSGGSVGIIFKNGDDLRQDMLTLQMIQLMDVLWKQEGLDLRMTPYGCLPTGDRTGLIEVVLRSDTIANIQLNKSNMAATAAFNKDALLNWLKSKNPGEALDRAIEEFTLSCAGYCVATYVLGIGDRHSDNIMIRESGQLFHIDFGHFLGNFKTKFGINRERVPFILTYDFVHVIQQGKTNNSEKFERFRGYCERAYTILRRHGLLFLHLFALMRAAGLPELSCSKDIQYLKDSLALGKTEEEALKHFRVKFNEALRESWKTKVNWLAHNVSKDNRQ

PI3Kγ = molecular target: T4, PI3Kγ (Homo sapiens, UniProt P48736); conditions: human recombinant PI3Kγ, ATP 30 μM; read-out: PI3K gamma inhibition
T4 construct: purchased Millipore Ltd (Billerica, Mass.)
T4 sequence (P48736 whole entry): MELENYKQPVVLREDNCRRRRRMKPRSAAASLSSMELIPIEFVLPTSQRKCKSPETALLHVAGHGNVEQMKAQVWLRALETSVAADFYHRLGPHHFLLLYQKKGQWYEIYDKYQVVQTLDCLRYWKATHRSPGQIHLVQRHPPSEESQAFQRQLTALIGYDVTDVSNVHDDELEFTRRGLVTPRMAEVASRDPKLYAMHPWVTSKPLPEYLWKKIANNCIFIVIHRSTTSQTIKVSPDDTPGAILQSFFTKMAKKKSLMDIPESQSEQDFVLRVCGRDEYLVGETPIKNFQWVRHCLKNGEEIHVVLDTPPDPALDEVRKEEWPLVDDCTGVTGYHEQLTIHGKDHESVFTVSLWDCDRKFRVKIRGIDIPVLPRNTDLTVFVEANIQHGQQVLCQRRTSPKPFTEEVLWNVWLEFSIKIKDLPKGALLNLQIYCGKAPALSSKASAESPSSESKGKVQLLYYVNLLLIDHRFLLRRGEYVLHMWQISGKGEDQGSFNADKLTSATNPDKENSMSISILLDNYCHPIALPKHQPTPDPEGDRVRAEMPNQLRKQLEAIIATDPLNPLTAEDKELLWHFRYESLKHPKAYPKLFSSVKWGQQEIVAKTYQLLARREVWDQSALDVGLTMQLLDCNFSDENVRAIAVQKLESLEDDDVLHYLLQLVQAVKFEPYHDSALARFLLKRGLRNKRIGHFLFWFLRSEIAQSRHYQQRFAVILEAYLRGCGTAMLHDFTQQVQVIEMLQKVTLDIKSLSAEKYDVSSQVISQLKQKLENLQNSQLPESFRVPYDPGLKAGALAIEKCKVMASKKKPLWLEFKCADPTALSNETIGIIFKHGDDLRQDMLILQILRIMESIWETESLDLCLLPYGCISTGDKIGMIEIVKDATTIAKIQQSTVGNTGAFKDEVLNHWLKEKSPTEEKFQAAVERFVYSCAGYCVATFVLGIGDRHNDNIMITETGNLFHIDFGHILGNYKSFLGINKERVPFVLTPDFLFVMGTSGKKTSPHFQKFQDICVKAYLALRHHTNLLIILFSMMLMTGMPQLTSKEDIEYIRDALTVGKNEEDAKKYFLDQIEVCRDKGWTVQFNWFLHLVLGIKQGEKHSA

T1 sequence (P42336 whole entry): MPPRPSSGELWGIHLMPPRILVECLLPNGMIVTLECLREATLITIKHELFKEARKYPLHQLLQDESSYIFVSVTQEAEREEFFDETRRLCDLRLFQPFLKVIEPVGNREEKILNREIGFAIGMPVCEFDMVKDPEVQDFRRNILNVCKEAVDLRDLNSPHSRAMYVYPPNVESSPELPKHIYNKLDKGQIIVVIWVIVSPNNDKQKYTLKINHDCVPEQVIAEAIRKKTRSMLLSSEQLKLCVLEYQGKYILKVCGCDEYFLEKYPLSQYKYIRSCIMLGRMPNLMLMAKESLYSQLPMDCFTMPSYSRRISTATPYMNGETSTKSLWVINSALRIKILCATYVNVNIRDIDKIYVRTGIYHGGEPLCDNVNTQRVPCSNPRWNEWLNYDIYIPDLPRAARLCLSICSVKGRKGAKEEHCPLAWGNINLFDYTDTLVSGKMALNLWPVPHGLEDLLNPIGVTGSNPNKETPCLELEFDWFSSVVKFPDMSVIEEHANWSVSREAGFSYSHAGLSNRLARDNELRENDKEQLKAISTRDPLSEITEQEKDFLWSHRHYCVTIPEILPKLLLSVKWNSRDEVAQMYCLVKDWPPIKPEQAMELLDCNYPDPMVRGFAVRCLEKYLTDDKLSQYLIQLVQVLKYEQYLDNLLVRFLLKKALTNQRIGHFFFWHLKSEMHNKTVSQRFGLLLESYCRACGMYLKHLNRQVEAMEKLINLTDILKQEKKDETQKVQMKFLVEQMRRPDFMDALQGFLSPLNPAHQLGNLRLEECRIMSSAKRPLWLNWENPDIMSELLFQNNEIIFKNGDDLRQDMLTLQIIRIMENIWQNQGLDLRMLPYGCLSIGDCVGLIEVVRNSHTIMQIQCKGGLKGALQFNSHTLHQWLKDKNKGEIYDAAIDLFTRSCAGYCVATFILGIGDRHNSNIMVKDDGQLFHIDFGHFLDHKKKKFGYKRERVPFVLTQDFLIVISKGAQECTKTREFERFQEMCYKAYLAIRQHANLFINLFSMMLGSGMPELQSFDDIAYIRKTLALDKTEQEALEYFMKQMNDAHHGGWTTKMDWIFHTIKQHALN

Row | Compound | IC50 (PI3Kα) | IC50 (PI3Kβ) | IC50 (PI3Kδ) | IC50 (PI3Kγ)
1 | CC(c1oc(=O)c2ccccc2c1C1=CCN(CC2CC2)CC1)n1nc(-c2cc(O)cc(F)c2)c2c(N)ncnc21 (stereo not drawn) [Example 66, 3-(1-(4-amino-3-(3-fluoro-5-hydroxyphenyl)-1H-pyrazolo[3,4-d]pyrimidin-1-yl)ethyl)-4-(1-(cyclopropylmethyl)-1,2,3,6-tetrahydropyridin-4-yl)-1H-isochromen-1-one hydrochloride] | 0.01 to 1 µM | 0.01 to 1 µM | < 0.01 µM | 0.01 to 1 µM
2 | CC(c1oc(=O)c2ccccc2c1-c1ccc(CN2CCCCC2)s1)n1nc(-c2cc(O)cc(F)c2)c2c(N)ncnc21 (stereo not drawn) [Example 68, 3-(1-(4-amino-3-(3-fluoro-5-hydroxyphenyl)-1H-pyrazolo[3,4-d]pyrimidin-1-yl)ethyl)-4-(5-(piperidin-1-ylmethyl)thiophen-2-yl)-1H-isochromen-1-one hydrochloride] | 0.01 to 1 µM | 0.01 to 1 µM | < 0.01 µM | 0.01 to 1 µM
3 | CC(c1oc(=O)c2ccccc2c1-c1cccc(C(=O)NCCN(C)C)c1)n1nc(-c2cc(O)cc(F)c2)c2c(N)ncnc21 (stereo not drawn) [Example 70, 3-(3-(1-(4-amino-3-(3-fluoro-5-hydroxyphenyl)-1H-pyrazolo[3,4-d]pyrimidin-1-yl)ethyl)-1-oxo-1H-isochromen-4-yl)-N-(2-(dimethylamino)ethyl)benzamide hydrochloride] | > 1 µM | 0.01 to 1 µM | < 0.01 µM | 0.01 to 1 µM
4 | CC(=O)N1CC=C(c2c(C(C)n3nc(-c4cncc(O)c4)c4c(N)ncnc43)oc(=O)c3ccccc23)CC1 (stereo not drawn) [Example 71, 4-(1-acetyl-1,2,3,6-tetrahydropyridin-4-yl)-3-(1-(4-amino-3-(5-hydroxypyridin-3-yl)-1H-pyrazolo[3,4-d]pyrimidin-1-yl)ethyl)-1H-isochromen-1-one] | 0.01 to 1 µM | 0.01 to 1 µM | < 0.01 µM | 0.01 to 1 µM
5 | CC(=O)N1CC=C(c2c(C(C)n3nc(-c4cc(O)cc(F)c4)c4c(N)ncnc43)oc(=O)c3ccccc23)CC1 (stereo not drawn) [Example 72, 4-(1-acetyl-1,2,3,6-tetrahydropyridin-4-yl)-3-(1-(4-amino-3-(3-fluoro-5-hydroxyphenyl)-1H-pyrazolo[3,4-d]pyrimidin-1-yl)ethyl)-1H-isochromen-1-one] | 0.01 to 1 µM | 0.01 to 1 µM | < 0.01 µM | 0.01 to 1 µM
6 | CC(c1oc(=O)c2ccccc2c1C1=CC2CCC(C1)N2C)n1nc(-c2cc(O)cc(F)c2)c2c(N)ncnc21 (stereo not drawn) [Example 92, 3-(1-(4-amino-3-(3-fluoro-5-hydroxyphenyl)-1H-pyrazolo[3,4-d]pyrimidin-1-yl)ethyl)-4-(8-methyl-8-azabicyclo[3.2.1]oct-2-en-3-yl)-1H-isochromen-1-one hydrochloride] | 0.01 to 1 µM | 0.01 to 1 µM | 0.01 to 1 µM | > 1 µM
7 | Cc1ncc(-c2nn(C(C)c3oc(=O)c4ccccc4c3-c3ccccc3)c3ncnc(N)c23)cc1O (stereo not drawn) [Example 99, 3-(1-(4-amino-3-(5-hydroxy-6-methylpyridin-3-yl)-1H-pyrazolo[3,4-d]pyrimidin-1-yl)ethyl)-4-phenyl-1H-isochromen-1-one] | 0.01 to 1 µM | 0.01 to 1 µM | < 0.01 µM | 0.01 to 1 µM
8 | CC(c1oc(=O)c2ccccc2c1C1=CCC(N)CC1)n1nc(-c2cc(O)cc(F)c2)c2c(N)ncnc21 (stereo not drawn) [Example 103, 3-(1-(4-amino-3-(3-fluoro-5-hydroxyphenyl)-1H-pyrazolo[3,4-d]pyrimidin-1-yl)ethyl)-4-(4-aminocyclohex-1-en-1-yl)-1H-isochromen-1-one hydrochloride] | 0.01 to 1 µM | 0.01 to 1 µM | < 0.01 µM | > 1 µM
9 | CC(NC(=O)c1c(N)nn2cccnc12)c1oc(=O)c2ccccc2c1-c1ccccc1 (stereo not drawn) [Example 110, 2-amino-N-(1-(1-oxo-4-phenyl-1H-isochromen-3-yl)ethyl)pyrazolo[1,5-a]pyrimidine-3-carboxamide] | 0.01 to 1 µM | 0.01 to 1 µM | 0.01 to 1 µM | 0.01 to 1 µM
10 | CC(Nc1ncnc2[nH]cnc12)c1oc(=O)c2ccccc2c1-c1cncs1 (stereo not drawn) [Example 117, 3-(1-(9H-purin-6-ylamino)ethyl)-4-(thiazol-5-yl)-1H-isochromen-1-one] | 0.01 to 1 µM | > 1 µM | < 0.01 µM | 0.01 to 1 µM
11 | CC(c1oc(=O)c2ccccc2c1-c1ccccc1)n1nc2ncnc(N)c2c1-c1cc(O)cc(F)c1 (stereo not drawn) [Example 118, 3-(1-(4-amino-3-(3-fluoro-5-hydroxyphenyl)-2H-pyrazolo[3,4-d]pyrimidin-2-yl)ethyl)-4-phenyl-1H-isochromen-1-one] | 0.01 to 1 µM | > 1 µM | 0.01 to 1 µM | > 1 µM
12 | CC(c1oc(=O)c2ccccc2c1-c1cccc(N(C)C)c1)n1nc(-c2cc(O)cc(F)c2)c2c(N)ncnc21 (stereo not drawn) [Example 119, 3-(1-(4-amino-3-(3-fluoro-5-hydroxyphenyl)-1H-pyrazolo[3,4-d]pyrimidin-1-yl)ethyl)-4-(3-(dimethylamino)phenyl)-1H-isochromen-1-one] | > 1 µM | > 1 µM | 0.01 to 1 µM | 0.01 to 1 µM
13 | CC(c1oc(=O)c2ccccc2c1-c1cncs1)n1nc(-c2cc(O)cc(F)c2)c2c(N)ncnc21 (stereo not drawn) [Example 120, 3-(1-(4-amino-3-(3-fluoro-5-hydroxyphenyl)-1H-pyrazolo[3,4-d]pyrimidin-1-yl)ethyl)-4-(thiazol-5-yl)-1H-isochromen-1-one] | 0.01 to 1 µM | 0.01 to 1 µM | < 0.01 µM | 0.01 to 1 µM
14 | CC(c1oc(=O)c2ccccc2c1-c1cnc(N)s1)n1nc(-c2cc(O)cc(F)c2)c2c(N)ncnc21 (stereo not drawn) [Example 121, 3-(1-(4-amino-3-(3-fluoro-5-hydroxyphenyl)-1H-pyrazolo[3,4-d]pyrimidin-1-yl)ethyl)-4-(2-aminothiazol-5-yl)-1H-isochromen-1-one hydrochloride] | > 1 µM | 0.01 to 1 µM | 0.01 to 1 µM | 0.01 to 1 µM
15 | CC(Nc1ncnc2[nH]cnc12)c1oc(=O)c2ccccc2c1-c1cn[nH]c1 (stereo not drawn) [Example 122, 3-(1-(9H-purin-6-ylamino)ethyl)-4-(1H-pyrazol-4-yl)-1H-isochromen-1-one] | 0.01 to 1 µM | 0.01 to 1 µM | < 0.01 µM | 0.01 to 1 µM
16 | CC(Nc1ncnc(N)c1C#N)c1oc(=O)c2ccccc2c1-c1cn[nH]c1 (stereo not drawn) [Example 123, 4-amino-6-((1-(1-oxo-4-(1H-pyrazol-4-yl)-1H-isochromen-3-yl)ethyl)amino)pyrimidine-5-carbonitrile hydrochloride] | 0.01 to 1 µM | 0.01 to 1 µM | 0.01 to 1 µM | 0.01 to 1 µM
17 | CC(Nc1ncnc2[nH]cnc12)c1oc(=O)c2ccccc2c1-c1cnc(N)nc1 (stereo not drawn) [Example 124, 3-(1-(9H-purin-6-ylamino)ethyl)-4-(2-aminopyrimidin-5-yl)-1H-isochromen-1-one] | > 1 µM | > 1 µM | 0.01 to 1 µM | > 1 µM
18 | Nc1ncnc2c1c(-c1cc(O)cc(F)c1)nn2CC1=C(c2ccccc2)c2ccccc2CO1 [Example 128, 3-(4-amino-1-((4-phenyl-1H-isochromen-3-yl)methyl)-1H-pyrazolo[3,4-d]pyrimidin-3-yl)-5-fluorophenol] | > 1 µM | 0.01 to 1 µM | 0.01 to 1 µM | 0.01 to 1 µM
